Results as given in patent publication US20220226291A1, “Combination Treatment of Cancer Using Sulfonamide Compound and Immune Regulator” (Taiho Pharmaceutical Co., Ltd, priority 2019, published 2022).

Columns and labels:
[1] = Body weight changes in MC38 colon cancer cell-transplanted mouse models; format: in vivo
Description: Body weights were measured using an electronic balance for animals. Body weight changes (BWCn) on the n^th day were determined based on the body weight measured on the n^th day (BWn) in accordance with the following formula.
(§1) An aqueous solution of 0.5% Hypromellose was prepared by adding an adequate amount of an injection solvent (Japanese Pharmacopoeia) to and dissolving Hypromellose at a concentration of 0.5 w/v %. Compound 1, synthesized in accordance with the method disclosed in WO 2017/209155, was grounded in an agate mortar, suspended at a given concentration in the aqueous solution of 0.5% Hypromellose, and then ultrasonically treated to obtain a homogeneous suspension. The resulting suspension was orally administered as Compound 1 once a day for continuous 14 days at 25 mg/kg/day or 50 mg/kg/day. To the control group, the aqueous solution of 0.5% Hypromellose was orally administered once a day for continuous 14 days.
(§2) As an anti-mouse PD-1 antibody (anti-mPD-1 Ab), CD279 (PD-1) Monoclonal Antibody (RMP1-14), eBioscience (Thermo Fisher Scientific) was diluted to a given concentration with PBS immediately before administration. On the first day of administration (Day 1), the anti-mouse PD-1 antibody was administered intraperitoneally at 0.05 mg/body.

[2] = system: MC38 mouse colon cancer cells; assay: Antitumor effect in MC38 colon cancer cell-transplanted mouse models (tumor volume); format: in vivo; conditions: for T/C (%): Day 15; for TV on Day 15 (mm^3, mean ± SE): MC38 s.c. in C57BL/6NCrl mice, n=10
Description: The mouse colon cancer cell strain MC38 was obtained from Dr. Yoshihiro Hayakawa (University of Toyama, Toyama, Japan). The MC38 cell strain was subjected to culture in an RPMI 1640 medium containing 10% fetal bovine serum and then to subculture in an incubator at 37° C. in the presence of 5% CO2 at a frequency of once or twice a week.
The MC38 cell suspension was transplanted subcutaneously at 1×10^6 cells/0.1 ml to the right chest of 6-week-old C57BL/6NCrl mice (Charles River Laboratories Japan, Inc.).
After transplantation, tumors were allowed to grow to reach the tumor volume (TV) of 50 to 300 mm^3. The longer diameter and the shorter diameter of the tumor were measured using a Digimatic caliper and the tumor volume (TV) was calculated in accordance with the following formula.
The animals were divided into groups each consisting of 10 individuals by stratified random allocation using TV as the indicator. The day on which grouping (n=10) was performed was designated as Day 0.
Tumor volume changes (T/C) were calculated based on TV on the final day of evaluation (Day 15).
as §1, §2

[3] = molecular target: T1, RNR (Homo sapiens, UniProt P31350); conditions: Non-Patent Literature 7; cited from earlier work
T1 sequence (P31350 1-389): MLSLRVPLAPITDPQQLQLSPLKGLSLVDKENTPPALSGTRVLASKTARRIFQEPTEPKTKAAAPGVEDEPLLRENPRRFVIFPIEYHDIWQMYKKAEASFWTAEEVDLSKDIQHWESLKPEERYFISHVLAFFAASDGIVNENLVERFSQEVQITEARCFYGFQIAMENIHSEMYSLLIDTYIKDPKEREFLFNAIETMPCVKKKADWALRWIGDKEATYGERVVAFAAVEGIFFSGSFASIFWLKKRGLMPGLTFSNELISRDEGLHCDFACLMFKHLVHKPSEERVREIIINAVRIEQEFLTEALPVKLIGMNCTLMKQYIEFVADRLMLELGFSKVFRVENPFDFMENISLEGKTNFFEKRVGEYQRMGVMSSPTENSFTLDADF

[4] = Non-Patent Literature 10; cited from earlier work
[5] = Compound 1 25 mg/kg/day p.o. days 1-14
[6] = Compound 1 50 mg/kg/day p.o. days 1-14

Q: Which results are given for Cc1ccc(F)c([C@@H](C)[C@H](NS(=O)(=O)c2ccc(Cl)cc2C(N)=O)c2n[nH]c(=O)o2)c1C [Compound 1, 5-Chloro-2-(N-((1S,2R)-2-(6-fluoro-2,3-dimethylphenyl)-1-(5-oxo-4,5-dihydro-1,3,4-oxadiazol-2-yl)propyl)sulfamoyl)benzamide]?
A: BWC on Day 15 (%, mean ± SE) [1, 5]: 4.0 ± 0.7%; BWC on Day 15 (%, mean ± SE) [1, 6]: 4.9 ± 1.0%; T/C (%) [2, 5]: 91.9%; TV on Day 15 (mm^3, mean ± SE) [2, 5]: 868 ± 182 mm^3; T/C (%) [2, 6]: 29.7%; TV on Day 15 (mm^3, mean ± SE) [2, 6]: 306 ± 79 mm^3; TV on Day 15 compared with the control group (Dunnett's test) ([2]; Compound 1 at 50 mg/kg/day alone): significantly lower

Q: Which RNR inhibitory activity [3] does the source give for NC(=O)NO [HU, hydroxyurea] here?
A: very weak

Q: For NC(=S)NN=Cc1ncccc1N [Compound 3-AP, 3-aminopyridine-2-carboxaldehyde thiosemicarbazone], which “Side effects caused in clinical cases” value [4] is on record?
A: hypoxia, dyspnea, methemoglobinemia
